Test system: release of glutamate from synaptosomes of mouse brains
Assay: Release of glutamate from synaptosomes of mouse brains (cerebellar mossy fibers), spontaneous and induced by depolarization, chemiluminescence detection
Assay type: cell-based
Procedure: B: Study of the effect of naftazone and of its glucuronide derivatives on the release of glutamate from synaptosomes of mouse brains.
In order to prepare the synaptosomes of mossy fibers, the Swiss-Webster […] are decapitated and the cerebellum is rapidly removed. Small pieces of tissue (1–2 mm^3) are washed in 100 ml of a mammal saline standard solution containing (mM): NaCl, 136; KCl, 5.6; MgCl2 1.2; CaCl2 2.2; glucose 5.5; NaHCO3 7.5; NaHPO4/Na2HPO4 buffer 1.2.
An oxygen current is caused to flow through them for 10 minutes.
In order to dissociate the pieces, they are sucked in a reciprocal movement with a 1 ml pipette.
The homogenate obtained is diluted in 3 ml of mammal Krebs's solution and is filtered through a Nylon® tissue (mesh 50 μm).
The filtrate is collected and left to settle for 30–45 min by gravity.
Synaptosomes derived from the glutarmatergic mossy fibers settle because or their large size with the nuclear fraction. The supernatant is discarded and the sediment is resuspended in 1 ml of a standard solution. The release of glutamate from the synaptosomes is detected according to the technique used for evaluating it in the CSF.
FIGS. 2A and 2B show the effects of naftazone (at concentrations of 0.5–50 μM) and of its glucuronidated derivative, respectively, on the spontaneous release of glutamate (curve -∘-) and of that induced by depolarization (curve -•-).
Each point in A and B represents the ISEM average of 3 measurements carried out in triple. In A, the spontaneously released glutamate is continuously measured during an exposure of 1 hour to the tested drug and is compared with controls. Release of glutamate by depolarization is determined after a 1 hour exposure to the tested drug and is compared with controls.
The drugs are left to incubate for 1 hour with synaptosomal aliquots before the measurement.

NC(=O)NNc1ccc2ccccc2c1O[C@@H]1O[C@H](C(=O)O)[C@@H](O)[C@H](O)[C@H]1O [glucuronidated derivative, 1-(1-hydroxy,2-naphthyl)semicarbazide-1-β-O-glucopyranosiduronic acid]
release of glutamate induced by a medium with a high K+ content (K+ (20 mM) containing Ca (5 mM), FIG. 2B): reduces, in a dose-dependent way | maximum reduction of K+-induced release of glutamate (at highest concentration tested (32 μM), K+ 20 mM, Ca 5 mM): about 60% | spontaneous release of glutamate from synaptosomes (glucuronidated derivative, range of the concentrations used (FIG. 2B)): does not reduce the spontaneous release of glutamate

Source: US7572774B2, “Methods for treating glutamate cytotoxicity with beta-naphthoquinone compounds” (Centre National de la Recherche Scientific (C.N.R.S.), priority 1999, dated 2009)
